Where two headings read alike, the source gives them in different places. Values belong to the compound of their own block, whether it stands above or below them.
Legend:
[1] = system: IICR (IP3 induced calcium release) in CHO cells; assay: Assay of IICR (IP3 induced calcium release)-inhibiting action; format: cell-based, Chinese hamster; conditions: for IICR level (percentage of inhibition): CHO cells, 10 μM ATP
In short: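 CHO cell medium replaced with calcium-containing BSS; compound added 1 min later, then 10 μM ATP after a further 2 min. Percent inhibition of the ATP-evoked rise in intracellular calcium determined at each compound concentration.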

[2] = system: SOCE (store operated calcium entry) in CHO cells; assay: Assay of SOCE (store operated calcium entry)-inhibiting action; format: cell-based, Chinese hamster; conditions: CHO cells, thapsigargin
In short: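 CHO cells in calcium-free BSS received compound, then 1 μM thapsigargin 2 min later to deplete stores; after 9 min, 2 mM calcium chloride (final) added. Percent inhibition of the rise in intracellular calcium determined at various compound concentrations.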

TGase = TGase (Cavia porcellus, UniProt P08587); format: biochemical; conditions: for TG level: level with DMSO control designated as 100
Method: An enzyme reaction solution (0.1 ml) (100 mM HEPES-NaOH, pH 7.5, 1 mM CaCl2, 20 μM monodansyl cadaverine, 0.05 mg/ml N,N-dimethylcasein, 5 μg/ml TGase) was introduced into wells of a 96-well plate (Nunc, 96 Well Black Plate with Clear Bottom). A test compound was added in concentrations of 0.3, 1.0, 3.0, 10, and 30 μM. The solution and the compound were sufficiently mixed while preventing foaming. The plate was set in the fluorescence drug screening system FDSS 3000 (Hamamatsu Photonics K.K.). TGase-inhibiting activity of the compound was calculated by assaying changes in fluorescence wavelength (at 340 nm) per unit time. […] The assay level at which TGase activity decreased by half in the presence of the test compound was designated as TG 50.
Hereafter, the numerals in parentheses written after the TG level, the SOCE level, and the IICR level correspond to the test compound concentrations. The number following the name of each title compound used in the Examples below represents a compound ID number designated arbitrarily by the present inventors.

Compound: 2-(N-isopropyl-2-hydroxyethyl)aminoethylferrocenylketone [Example 287]
IICR level (percentage of inhibition) ([1]; test compound 10 μmol): 20%
IICR level (percentage of inhibition) ([1]; test compound 30 μmol): 40%
IICR level (percentage of inhibition) ([1]; test compound 100 μmol): 40%
SOCE level (percentage of inhibition) ([2]; test compound 30 μmol): 0%
SOCE level (percentage of inhibition) ([2]; test compound 100 μmol): 10%
TG level (TGase; test compound 3 μmol): 100
TG level (TGase; test compound 30 μmol): 60.8

Compound: 2-(N-isopropylbenzyl)aminoethyl-1-methyl-2-pyrrylketone [Example 195]
IICR level (percentage of inhibition) ([1]; test compound 10 μmol): 0%
IICR level (percentage of inhibition) ([1]; test compound 30 μmol): 0%
IICR level (percentage of inhibition) ([1]; test compound 100 μmol): 0%
SOCE level (percentage of inhibition) ([2]; test compound 10 μmol): 0%
SOCE level (percentage of inhibition) ([2]; test compound 30 μmol): 0%
SOCE level (percentage of inhibition) ([2]; test compound 100 μmol): 10%
TG level (TGase; test compound 3 μmol): 73
TG level (TGase; test compound 10 μmol): 62.6
TG level (TGase; test compound 30 μmol): 6.4

Compound: 2-(N-isopropylbenzyl)aminoethylferrocenylketone [Example 286]
IICR level (percentage of inhibition) ([1]; test compound 10 μmol): 50%
IICR level (percentage of inhibition) ([1]; test compound 30 μmol): 80%
IICR level (percentage of inhibition) ([1]; test compound 100 μmol): 50%
SOCE level (percentage of inhibition) ([2]; test compound 30 μmol): 0%
SOCE level (percentage of inhibition) ([2]; test compound 100 μmol): 0%
TG level (TGase; test compound 3 μmol): 99.2
TG level (TGase; test compound 30 μmol): 54.2

Compound: 2-bis(N-2-hydroxyethyl)aminoethylferrocenylketone [Example 288]
IICR level (percentage of inhibition) ([1]; test compound 10 μmol): 40%
IICR level (percentage of inhibition) ([1]; test compound 30 μmol): 50%
IICR level (percentage of inhibition) ([1]; test compound 100 μmol): 60%
SOCE level (percentage of inhibition) ([2]; test compound 30 μmol): 10%
SOCE level (percentage of inhibition) ([2]; test compound 100 μmol): 40%
TG level (TGase; test compound 3 μmol): 94.9
TG level (TGase; test compound 30 μmol): 44.1

Compound: O=C(CCNCCSSCCNCCC(=O)c1ccc(Br)s1)c1ccc(Br)s1 [Example 340]
IICR level (percentage of inhibition) ([1]; test compound 10 μmol): 0%
IICR level (percentage of inhibition) ([1]; test compound 30 μmol): 40%
IICR level (percentage of inhibition) ([1]; test compound 100 μmol): 60%
SOCE level (percentage of inhibition) ([2]; test compound 10 μmol): 0%
SOCE level (percentage of inhibition) ([2]; test compound 30 μmol): 18%
SOCE level (percentage of inhibition) ([2]; test compound 100 μmol): 65%
TG level (TGase; test compound 3 μmol): 0.8
TG level (TGase; test compound 10 μmol): 2.5
TG level (TGase; test compound 30 μmol): 4.3

TG level (TGase; test compound 3 μmol): 93
TG level (TGase; test compound 10 μmol): 22.6
TG level (TGase; test compound 30 μmol): 3.6
Compound: O=C(CCNCCCCNCCC(=O)c1ccc(Br)s1)c1ccc(Br)s1 [Example 356]
IICR level (percentage of inhibition) ([1]; test compound 10 μmol): 0%
IICR level (percentage of inhibition) ([1]; test compound 30 μmol): 0%
IICR level (percentage of inhibition) ([1]; test compound 100 μmol): 10%
SOCE level (percentage of inhibition) ([2]; test compound 10 μmol): 0%
SOCE level (percentage of inhibition) ([2]; test compound 30 μmol): 3%
SOCE level (percentage of inhibition) ([2]; test compound 100 μmol): 10%

Compound: O=C(CCNCCSSCCNCCC(=O)c1cccs1)c1cccs1 [Example 369]
IICR level (percentage of inhibition) ([1]; test compound 10 μmol): 0%
IICR level (percentage of inhibition) ([1]; test compound 30 μmol): 0%
IICR level (percentage of inhibition) ([1]; test compound 100 μmol): 70%
SOCE level (percentage of inhibition) ([2]; test compound 10 μmol): 20%
SOCE level (percentage of inhibition) ([2]; test compound 30 μmol): 40%
SOCE level (percentage of inhibition) ([2]; test compound 100 μmol): 50%
TG level (TGase; test compound 3 μmol): 95.1
TG level (TGase; test compound 30 μmol): −64.9

Compound: O=C(CCNCCSSCCNCCC(=O)c1ccc2ccccc2c1)c1ccc2ccccc2c1 [Example 370]
IICR level (percentage of inhibition) ([1]; test compound 10 μmol): 0%
IICR level (percentage of inhibition) ([1]; test compound 30 μmol): 0%
IICR level (percentage of inhibition) ([1]; test compound 100 μmol): 29%
SOCE level (percentage of inhibition) ([2]; test compound 10 μmol): 0%
SOCE level (percentage of inhibition) ([2]; test compound 30 μmol): 0%
SOCE level (percentage of inhibition) ([2]; test compound 100 μmol): 3%
TG level (TGase; test compound 3 μmol): 36
TG level (TGase; test compound 30 μmol): 1.6

Compound: O=C(CCNCCSSCCNCCC(=O)c1ccco1)c1ccco1 [Example 372]
IICR level (percentage of inhibition) ([1]; test compound 10 μmol): 0%
IICR level (percentage of inhibition) ([1]; test compound 30 μmol): 54%
IICR level (percentage of inhibition) ([1]; test compound 100 μmol): 58%
SOCE level (percentage of inhibition) ([2]; test compound 10 μmol): 0%
SOCE level (percentage of inhibition) ([2]; test compound 30 μmol): 0%
SOCE level (percentage of inhibition) ([2]; test compound 100 μmol): 15%
TG level (TGase; test compound 3 μmol): 13
TG level (TGase; test compound 30 μmol): −1.5

Compound: O=C(CCNCCSSCCNCCC(=O)c1ccsc1)c1ccsc1 [Example 380]
IICR level (percentage of inhibition) ([1]; test compound 10 μmol): 10%
IICR level (percentage of inhibition) ([1]; test compound 30 μmol): 76%
IICR level (percentage of inhibition) ([1]; test compound 100 μmol): 81%
SOCE level (percentage of inhibition) ([2]; test compound 10 μmol): 4%
SOCE level (percentage of inhibition) ([2]; test compound 30 μmol): 31%
SOCE level (percentage of inhibition) ([2]; test compound 100 μmol): 70%
TG level (TGase; test compound 3 μmol): 25
TG level (TGase; test compound 30 μmol): 4.2

Compound: CC(C)N(CCC(=O)c1cc2ccccc2s1)Cc1ccccc1 [Example 8759, 2-(N-isopropylbenzyl)aminoethyl-2-benzothienylketone]
IICR-inhibiting activity compared with SOCE-inhibiting activity (in words) [1]: higher than SOCE-inhibiting activity
TG-activity-inhibiting action or protein-crosslinking-inhibiting action (in words) (TGase): strongly

Compound: CC(C)(C)N(CCC(=O)c1cc2ccccc2s1)Cc1ccccc1 [Example 8761, 2-(N-t-butylbenzyl)aminoethyl-2-benzothienylketone]
IICR-inhibiting activity compared with SOCE-inhibiting activity (in words) [1]: higher than SOCE-inhibiting activity
TG-activity-inhibiting action or protein-crosslinking-inhibiting action (in words) (TGase): strongly

Compound: CCN(CCC(=O)c1nccs1)Cc1ccccc1 [Example 8765, 2-(N-ethylbenzyl)aminoethyl-2-thiazolylketone]
IICR-inhibiting activity compared with SOCE-inhibiting activity (in words) [1]: higher than SOCE-inhibiting activity
TG-activity-inhibiting action or protein-crosslinking-inhibiting action (in words) (TGase): strongly

Compound: O=C(CCN(CCO)Cc1ccccc1)c1nccs1 [Example 8766, 2-(N-2-hydroxyethylbenzyl)aminoethyl-2-thiazolylketone]
IICR-inhibiting activity compared with SOCE-inhibiting activity (in words) [1]: higher than SOCE-inhibiting activity
TG-activity-inhibiting action or protein-crosslinking-inhibiting action (in words) (TGase): strongly

TG-activity-inhibiting action or protein-crosslinking-inhibiting action (in words) (TGase): strongly
Compound: CC(C)N(CCC(=O)c1ccc(Br)s1)Cc1ccccc1 [Example 8768, 2-(N-isopropylbenzyl)aminoethyl-5-bromo-2-thienylketone]
IICR-inhibiting activity compared with SOCE-inhibiting activity (in words) [1]: higher than SOCE-inhibiting activity

TG-activity-inhibiting action or protein-crosslinking-inhibiting action (in words) (TGase): strongly
Compound: CCCCN(CCO)CCC(=O)c1ccc(Br)s1 [Example 8769, 2-(N-2-hydroxyethylbutyl)aminoethyl-5-bromo-2-thienylketone]
IICR-inhibiting activity compared with SOCE-inhibiting activity (in words) [1]: higher than SOCE-inhibiting activity

Compound: CC(C)(C)N(CCC(=O)c1ccc(C#N)cc1)Cc1ccccc1 [Example 8789, 2-(N-t-butylbenzyl)aminoethyl-4-cyanophenylketone]
IICR-inhibiting activity compared with SOCE-inhibiting activity (in words) [1]: higher than SOCE-inhibiting activity
TG-activity-inhibiting action or protein-crosslinking-inhibiting action (in words) (TGase): strongly

Compound: CC(C)N(CCC(=O)c1ccc(C#N)cc1)Cc1ccccc1 [Example 8803, 2-(N-benzylisopropyl)aminoethyl-4-cyanophenylketone]
IICR-inhibiting activity compared with SOCE-inhibiting activity (in words) [1]: higher than SOCE-inhibiting activity
TG-activity-inhibiting action or protein-crosslinking-inhibiting action (in words) (TGase): strongly

Compound: Cc1ccsc1C(=O)CCN(Cc1ccccc1)C(C)(C)C [Example 8816, 2-(N-benzyl-t-butyl)aminoethyl-3-methyl-2-thienylketone]
IICR-inhibiting activity compared with SOCE-inhibiting activity (in words) [1]: higher than SOCE-inhibiting activity
TG-activity-inhibiting action or protein-crosslinking-inhibiting action (in words) (TGase): strongly

Compound: Cc1csc(C(=O)CCN(Cc2ccccc2)C(C)(C)C)c1 [Example 8817, 2-(N-benzyl-t-butyl)aminoethyl-4-methyl-2-thienylketone]
IICR-inhibiting activity compared with SOCE-inhibiting activity (in words) [1]: higher than SOCE-inhibiting activity
TG-activity-inhibiting action or protein-crosslinking-inhibiting action (in words) (TGase): strongly

Compound: Cc1ccc(C(=O)CCN(Cc2ccccc2)C(C)(C)C)s1 [Example 8818, 2-(N-benzyl-t-butyl)aminoethyl-5-methyl-2-thienylketone]
IICR-inhibiting activity compared with SOCE-inhibiting activity (in words) [1]: higher than SOCE-inhibiting activity
TG-activity-inhibiting action or protein-crosslinking-inhibiting action (in words) (TGase): strongly

TG-activity-inhibiting action or protein-crosslinking-inhibiting action (in words) (TGase): strongly
Compound: CCCCN(CCCC)CCC(=O)c1ccc(Br)s1 [Example 8848, 2-(N,N-di-n-butyl)aminoethyl-5-bromo-2-thienylketone]
IICR-inhibiting activity compared with SOCE-inhibiting activity (in words) [1]: higher than SOCE-inhibiting activity

TG-activity-inhibiting action or protein-crosslinking-inhibiting action (in words) (TGase): strongly
Compound: CCC(C)N(CCC(=O)c1ccc(Br)s1)C(C)CC (stereo not shown) [Example 8849, 2-(N,N-di-sec-butyl)aminoethyl-5-bromo-2-thienylketone]
IICR-inhibiting activity compared with SOCE-inhibiting activity (in words) [1]: higher than SOCE-inhibiting activity

Compound: N,N-bis(2-(4-bromobenzoyl)ethyl)cystinemethylester [Example 392]
IICR level (percentage of inhibition) ([1]; test compound 10 μmol): 58%
IICR level (percentage of inhibition) ([1]; test compound 30 μmol): 61%
IICR level (percentage of inhibition) ([1]; test compound 100 μmol): 76%
SOCE level (percentage of inhibition) ([2]; test compound 10 μmol): 20%
SOCE level (percentage of inhibition) ([2]; test compound 30 μmol): 40%
SOCE level (percentage of inhibition) ([2]; test compound 100 μmol): 50%
TG level (TGase; test compound 3 μmol): 25
TG level (TGase; test compound 10 μmol): 3.7
TG level (TGase; test compound 30 μmol): 2.3

Compound: N,N-bis(2-(4-pyridinoyl)ethyl)cystinemethylester [Example 393]
IICR level (percentage of inhibition) ([1]; test compound 10 μmol): 44%
IICR level (percentage of inhibition) ([1]; test compound 30 μmol): 42%
IICR level (percentage of inhibition) ([1]; test compound 100 μmol): 21%
SOCE level (percentage of inhibition) ([2]; test compound 10 μmol): 20%
SOCE level (percentage of inhibition) ([2]; test compound 30 μmol): 40%
SOCE level (percentage of inhibition) ([2]; test compound 100 μmol): 50%
TG level (TGase; test compound 3 μmol): 54
TG level (TGase; test compound 10 μmol): 16
TG level (TGase; test compound 30 μmol): 3.5

— patent US8937091B2 (Japan Science and Technology Agency, priority 2009, dated 2015)
